According to PubChem BioAssay AID1963867 (Molecular Pharmacology Branch, DTP, NCI, 2024):
pIC50: −log10 of the molar value.

Test system: KRAS-mutant PDC tumor spheroid with HUVEC/MSC, viability
Assay: Anticancer human tumor 327498-153-R-J2-PDC patient-derived uterine carcinosarcoma cell line growth inhibition [KRAS2]
Settings: for pIC50: curve of first compound; for viability, T/C: stronger effect = lower value
From the text: Multicellular complex tumor spheroid response to RAS pathway inhibitors in combination with a targeted agents in patient-derived cell lines with oncogenic KRAS variants from multiple cancer types
A high-throughput screen of multi-cell type tumor spheroids was designed to identify active combinations of targeted small molecules and KRAS pathway inhibitors. Complex spheroids include a stromal component modeled by human endothelial cells (HUVEC) and fibroblasts modeled by human mesenchymal stem cells (MSCs). The concentration ranges selected for each drug and investigational agent were based upon clinically achievable concentrations if the clinical Cmax of the agent was known.
Compounds. The drugs and investigational agents: BI-3406 (NSC825286), BAY-293 (NSC824723), batoprotafib (TNO155; NSC825523), sotorasib (AMG 510; NSC818433), MRTX1257 (NSC819558), elimusertib (BAY 1895344; NSC800525), molibresib (GSK525762; NSC774829), temuterkib (LY3214996; NSC803410), venetoclax (NSC766270), alisertib (NSC759677), olaparib (NSC753686), talazoparib (NSC767125), erdafitinib (NSC781556), ipatasertib (NSC767898), cabozantinib (NSC761068), nintedanib (NSC756659), abemaciclib (NSC768073), docetaxel (NSC628503), trametinib (NSC758246), and sapanisertib (NSC764658) were obtained from the National Cancer Institute (NCI) Developmental Therapeutics Program Chemical Repository. The FDA-approved anticancer drug set is available from the Developmental Therapeutics Program. […] The stock solutions were prepared in dimethyl sulfoxide (DMSO, Sigma-Aldrich, St. Louis, MO, cat. D2650) at 800-fold the tested concentration and stored at -70 degrees C prior to their use. All drugs and investigational agents were tested over a range starting from a high concentration at or near the clinical Cmax and decreasing in half-log increments. If the clinical Cmax for an agent had not been determined, the highest concentration tested was 10 microM.
Cell Culture. All cells were maintained in an incubator at 37 degrees C and 5% CO2 with 95% humidity. The PDC lines were cultured according to standard operating procedures established by the NCI PDMR (https://pdmr.cancer.gov/sops/default.htm). Briefly, all PDCs were thawed and cultured in Matrigel-coated flasks prepared with a working solution of 1X Ham's F-12 nutrient mix, without supplementation (Invitrogen, Waltham, MA, cat. 11765054), 100 U/mL penicillin-streptomycin (Invitrogen, cat. 15140122), and 2.5% Matrigel (Corning Inc., Corning, NY, cat. 354248) for the first three passages. All PDCs were cultured in complete DMEM/F-12 media containing advanced DMEM/F-12 (Invitrogen, cat. 12634028), 4.9% defined fetal bovine serum, heat inactivated (HyClone Laboratories Inc., Logan, UT, cat. SH30070.03HI), 389 ng/mL hydrocortisone (Sigma-Aldrich, cat. H4001), 9.7 ng/mL human EGF recombinant protein (Invitrogen, cat. PHG0313), 23.4 microg/mL adenine (Sigma-Aldrich, cat. A2786), 97.3 U/mL penicillin-streptomycin (Invitrogen, cat. 15140122), 1.9 mM L-glutamine (Invitrogen, cat. 25030081), and 9.7 microM Y-27632 dihydrochloride (Tocris Bioscience, Bristol, United Kingdom, cat. 1254). The PDCs were cultured in complete DMEM/F12 media without 9.7 microM Y-27632 dihydrochloride for at least two passages prior to the screen. The established cell line HOP-62 was cultured in RPMI 1640 medium, HEPES (Invitrogen, cat. 22400105) with 10% defined fetal bovine serum (HyClone Laboratories Inc., cat. SH30070.03) and 2 mM L-glutamine (Invitrogen, cat. 25030081). The pooled donor HUVEC were cultured in endothelial cell growth medium 2 (PromoCell, Heidelberg, Germany, cat. C-22011) and the hMSC were cultured in mesenchymal stem cell growth medium 2 (PromoCell, cat. C-28009). For all experiments, HUVEC and hMSC were used at passages </=5, while the malignant cell lines were used at passages </=15. […]

[1] = second compound 0.1 µM, first compound 0.000316 µM
[2] = second compound 0.1 µM, first compound 0.001 µM
[3] = second compound 0.1 µM, first compound 0.00316 µM
[4] = second compound 0.1 µM, first compound 0.01 µM
[5] = second compound 0.1 µM, first compound 0.0316 µM
[6] = second compound 0.1 µM, first compound 0.1 µM
[7] = second compound 0.316 µM, first compound 0.000316 µM
[8] = second compound 0.316 µM, first compound 0.001 µM
[9] = second compound 0.316 µM, first compound 0.00316 µM
[10] = second compound 0.316 µM, first compound 0.01 µM
[11] = second compound 0.316 µM, first compound 0.0316 µM
[12] = second compound 0.316 µM, first compound 0.1 µM
[13] = second compound 1 µM, first compound 0.000316 µM
[14] = second compound 1 µM, first compound 0.001 µM
[15] = second compound 1 µM, first compound 0.00316 µM
[16] = second compound 1 µM, first compound 0.01 µM
[17] = second compound 1 µM, first compound 0.0316 µM
[18] = second compound 1 µM, first compound 0.1 µM
[19] = second compound 3.16 µM, first compound 0.000316 µM
[20] = second compound 3.16 µM, first compound 0.001 µM
[21] = second compound 3.16 µM, first compound 0.00316 µM
[22] = second compound 3.16 µM, first compound 0.01 µM
[23] = second compound 3.16 µM, first compound 0.0316 µM
[24] = second compound 3.16 µM, first compound 0.1 µM
[25] = second compound 10 µM, first compound 0.000316 µM
[26] = second compound 10 µM, first compound 0.001 µM
[27] = second compound 10 µM, first compound 0.00316 µM
[28] = second compound 10 µM, first compound 0.01 µM
[29] = second compound 10 µM, first compound 0.0316 µM
[30] = second compound 10 µM, first compound 0.1 µM
[31] = second compound 0.1 µM, first compound 0.316 µM
[32] = second compound 0.1 µM, first compound 1 µM
[33] = second compound 0.1 µM, first compound 3.16 µM
[34] = second compound 0.1 µM, first compound 10 µM
[35] = second compound 0.316 µM, first compound 0.316 µM
[36] = second compound 0.316 µM, first compound 1 µM
[37] = second compound 0.316 µM, first compound 3.16 µM
[38] = second compound 0.316 µM, first compound 10 µM
[39] = second compound 1 µM, first compound 0.316 µM
[40] = second compound 1 µM, first compound 1 µM
[41] = second compound 1 µM, first compound 3.16 µM
[42] = second compound 1 µM, first compound 10 µM
[43] = second compound 3.16 µM, first compound 0.316 µM
[44] = second compound 3.16 µM, first compound 1 µM
[45] = second compound 3.16 µM, first compound 3.16 µM
[46] = second compound 3.16 µM, first compound 10 µM
[47] = second compound 10 µM, first compound 0.316 µM
[48] = second compound 10 µM, first compound 1 µM
[49] = second compound 10 µM, first compound 3.16 µM
[50] = second compound 10 µM, first compound 10 µM
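Also: spheroids exposed to agents for seven days before reading.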
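For viability, T/C in this document: 100% = DMSO vehicle wells so lower means fewer viable cells.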

SMILES	pIC50 (second compound 0.1 µM)	pIC50 (second compound 0.316 µM)	pIC50 (second compound 1 µM)	pIC50 (second compound 3.16 µM)	pIC50 (second compound 10 µM)	viability, T/C [1]	viability, T/C [2]	viability, T/C [3]	viability, T/C [4]	viability, T/C [5]	viability, T/C [6]	viability, T/C [7]	viability, T/C [11]	viability, T/C [12]	viability, T/C [17]	viability, T/C [18]	viability, T/C [23]	viability, T/C [24]	viability, T/C [29]	viability, T/C [30]	also measured
CC(C)n1nc(-c2ccc3oc(N)nc3c2)c2c(N)ncnc21 + C=CC(=O)N1CCN(c2nc(=O)n(-c3c(C)ccnc3C(C)C)c3nc(-c4c(O)cccc4F)c(F)cc23)C(C)C1	9.24	> 9.50	> 9.50	> 9.50	> 9.50	57.6%	40.7%	34.6%	17.6%	8.67%	5.6%	45.4%	9.71%	5.39%	7.05%	5.38%	6.92%	6.19%	5.88%	5.69%	viability, T/C [8]: 41.2%; viability, T/C [9]: 26.1%; viability, T/C [10]: 14.3%; viability, T/C [13]: 49.5%; viability, T/C [14]: 38%; viability, T/C [15]: 23.5%; viability, T/C [16]: 14.4%; viability, T/C [19]: 42.1%; viability, T/C [20]: 33.2%; viability, T/C [21]: 21.5%; viability, T/C [22]: 13.9%; viability, T/C [25]: 31.1%; viability, T/C [26]: 25.3%; viability, T/C [27]: 19.1%; viability, T/C [28]: 8.99%
CC1(C)CCC(CN2CCN(c3ccc(C(=O)NS(=O)(=O)c4ccc(NCC5CCOCC5)c([N+](=O)[O-])c4)c(Oc4cnc5[nH]ccc5c4)c3)CC2)=C(c2ccc(Cl)cc2)C1 + C=CC(=O)N1CCN(c2nc(=O)n(-c3c(C)ccnc3C(C)C)c3nc(-c4c(O)cccc4F)c(F)cc23)C(C)C1	5.89	5.76	5.80	5.92	> 7.50	–	–	–	–	65.7%	61.1%	–	57%	54.5%	60.7%	55.2%	52.6%	53.5%	43.2%	41.6%	viability, T/C [31]: 54%; viability, T/C [32]: 57.4%; viability, T/C [33]: 36.5%; viability, T/C [34]: 1.21%; viability, T/C [35]: 58.1%; viability, T/C [36]: 57.5%; viability, T/C [37]: 42.7%; viability, T/C [38]: 6.41%; viability, T/C [39]: 57.4%; viability, T/C [40]: 52.2%; viability, T/C [41]: 44.3%; viability, T/C [42]: 1.34%; viability, T/C [43]: 53.2%; viability, T/C [44]: 52.6%; viability, T/C [45]: 37.4%; viability, T/C [46]: 0.58%; viability, T/C [47]: 37.8%; viability, T/C [48]: 46.5%; viability, T/C [49]: 10.5%; viability, T/C [50]: 2.01%
COc1cc2nccc(Oc3ccc(NC(=O)C4(C(=O)Nc5ccc(F)cc5)CC4)cc3)c2cc1OC + C=CC(=O)N1CCN(c2nc(=O)n(-c3c(C)ccnc3C(C)C)c3nc(-c4c(O)cccc4F)c(F)cc23)C(C)C1	5.87	5.94	5.97	5.99	> 7.50	–	–	–	–	55.8%	63.5%	–	56.8%	59.5%	49.1%	52.4%	51.4%	49.7%	36%	37.5%	viability, T/C [31]: 60.1%; viability, T/C [32]: 59.6%; viability, T/C [33]: 22.6%; viability, T/C [34]: 1.82%; viability, T/C [35]: 59.9%; viability, T/C [36]: 54.5%; viability, T/C [37]: 16.5%; viability, T/C [38]: 1.34%; viability, T/C [39]: 53.7%; viability, T/C [40]: 54%; viability, T/C [41]: 16%; viability, T/C [42]: 1.1%; viability, T/C [43]: 54.8%; viability, T/C [44]: 50.9%; viability, T/C [45]: 15.2%; viability, T/C [46]: 0.82%; viability, T/C [47]: 39.9%; viability, T/C [48]: 34%; viability, T/C [49]: 8.7%; viability, T/C [50]: 0.79%
Cn1ncnc1[C@H]1c2n[nH]c(=O)c3cc(F)cc(c23)N[C@@H]1c1ccc(F)cc1 + C=CC(=O)N1CCN(c2nc(=O)n(-c3c(C)ccnc3C(C)C)c3nc(-c4c(O)cccc4F)c(F)cc23)C(C)C1	8.41	8.46	8.71	8.76	> 9.50	63.7%	58.6%	54%	36.1%	22.2%	15.6%	54.8%	19.8%	15.4%	21%	15.9%	21.7%	14.8%	16.9%	13.4%	viability, T/C [8]: 60.3%; viability, T/C [9]: 49.1%; viability, T/C [10]: 36.9%; viability, T/C [13]: 59%; viability, T/C [14]: 59.5%; viability, T/C [15]: 42.7%; viability, T/C [16]: 34.1%; viability, T/C [19]: 55.9%; viability, T/C [20]: 53%; viability, T/C [21]: 47%; viability, T/C [22]: 32.4%; viability, T/C [25]: 39.9%; viability, T/C [26]: 45.1%; viability, T/C [27]: 34.1%; viability, T/C [28]: 20.5%
